We go through twelve compounds from ChEMBL document CHEMBL1201862, “PubChem BioAssay data set” (2004).

The structures appear in SMILES notation.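 Interpolation was linear, between the two tested concentrations surrounding the appropriate level; five concentrations were tested over 48 hours in 96-well plates. GI50 is the concentration that inhibits growth by half.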 Activity calls are given as the source filed them. Rule as the data show it: active = GI50 up to about 1.1 µM and inactive = higher.

Test systems include SK-MEL-28; SK-MEL-5; COLO 205; OVCAR-8; A549; MDA-MB-231; U-251; EKVX; IGROV-1; SF-539; HCT-116; NCI-H23; LOX IMVI; HOP-92; ACHN; HCC 2998; CAKI-1; NCI-H226; UO-31; A498.
Experiment in all cases: NCI anticancer screen, dose series, 48 h

Take `O=C(O)/C(=C\c1ccncc1)c1cccc2ccccc12`: the GI50 in the assay with SK-MEL-28 is > 100 µM (inactive); in the assay with SK-MEL-5, > 100 µM (inactive); in the assay with COLO 205, > 100 µM (inactive); with OVCAR-8 it was > 100 µM (inactive); in the assay on A549, 90.6 µM (inactive); in the assay with MDA-MB-231 it was > 100 µM (inactive). For the same compound, the GI50 in the assay with U-251, in the assay with EKVX, in the assay on IGROV-1, in the assay with SF-539, in the assay on HCT-116 and in the assay on NCI-H23 was > 100 µM (inactive) throughout. The GI50 in the assay with LOX IMVI and with HOP-92 was > 100 µM (inactive) in each case.
Turning to `Cc1ccc(S(=O)(=O)n2cncc2CO)cc1`, the GI50 with SK-MEL-28, with ACHN, with SK-MEL-5, with HCC 2998, with COLO 205 and in the assay on OVCAR-8 was > 100 µM (inactive) each time. Further, the GI50 in the assay with A549, with CAKI-1, in the assay on MDA-MB-231, in the assay with U-251, with EKVX and in the assay with IGROV-1 was > 100 µM (inactive) throughout. For the same compound, the GI50 in the assay on NCI-H226, with SF-539, in the assay on UO-31, in the assay with HCT-116, in the assay with NCI-H23 and in the assay on LOX IMVI was > 100 µM (inactive) throughout.
Turning to `Cc1nc2[nH]ncn2c(=O)c1CCO`, the GI50 is 2.56 µM (inactive) with SK-MEL-28; > 10 µM (inactive) with ACHN; > 10 µM (inactive) in the assay on SK-MEL-5; > 10 µM (inactive) in the assay on HCC 2998; > 10 µM (inactive) in the assay with COLO 205; > 10 µM (inactive) with OVCAR-8. Moreover, the GI50 with A498, in the assay on A549, with CAKI-1, in the assay on MDA-MB-231, in the assay with U-251 and in the assay on EKVX was > 10 µM (inactive) each time. The GI50 with IGROV-1, in the assay with NCI-H226, in the assay on SF-539, in the assay on UO-31, with HCT-116 and in the assay with NCI-H23 was > 10 µM (inactive) throughout. The GI50 in the assay on LOX IMVI was > 10 µM (inactive).
With `O=C(Nc1cccc2ccccc12)Nn1cnnc1`, the GI50 in the assay with SK-MEL-28 was > 100 µM (inactive); in the assay with ACHN it was > 100 µM (inactive); in the assay on SK-MEL-5 it was > 100 µM (inactive); with HCC 2998 it was > 100 µM (inactive); in the assay on COLO 205, > 100 µM (inactive); in the assay on OVCAR-8, 19.1 µM (inactive). The GI50 with A498, in the assay on A549, in the assay on CAKI-1, in the assay on U-251, in the assay with EKVX and in the assay with IGROV-1 was > 100 µM (inactive) each time. In addition, the GI50 in the assay with NCI-H226, in the assay on SF-539, with UO-31, with HCT-116, in the assay with NCI-H23 and with LOX IMVI was > 100 µM (inactive) throughout. For the same compound, the GI50 in the assay on HOP-92 was > 100 µM (inactive).
Take `CCOc1c(/N=N/c2ccccc2Cl)c(-c2ccccc2)nn1C(=S)S`: the GI50 is > 100 µM (inactive) in the assay on SK-MEL-28; 48.1 µM (inactive) in the assay on ACHN; 21.2 µM (inactive) in the assay on SK-MEL-5; 21.4 µM (inactive) with COLO 205; 54 µM (inactive) in the assay on OVCAR-8; 33.2 µM (inactive) in the assay on A549. Besides, the GI50 in the assay with CAKI-1 was 18.7 µM (inactive); with MDA-MB-231 it was 15.7 µM (inactive); with U-251, 51.1 µM (inactive); with EKVX, 30.9 µM (inactive); in the assay on IGROV-1 it was 42.6 µM (inactive); with NCI-H226, 20.8 µM (inactive). Moreover, the GI50 in the assay with SF-539 was 14.2 µM (inactive); with UO-31, 35.6 µM (inactive); in the assay on HCT-116 it was 28 µM (inactive); in the assay with NCI-H23, 30.3 µM (inactive); with LOX IMVI, 19.9 µM (inactive); in the assay on HOP-92, 54 µM (inactive).
Turning to `CCCCCCCCCCCC1=NCCN1`, the GI50 is > 100 µM (inactive) in the assay with SK-MEL-28; > 100 µM (inactive) with ACHN; 38.6 µM (inactive) with SK-MEL-5; 19.5 µM (inactive) with HCC 2998; 19.4 µM (inactive) in the assay on COLO 205; > 100 µM (inactive) in the assay with OVCAR-8. Moreover, the GI50 with A498 was 0.557 µM (active); in the assay with A549, 90.6 µM (inactive); in the assay with MDA-MB-231 it was 23.8 µM (inactive); with U-251 it was 49.9 µM (inactive); in the assay with NCI-H226, > 100 µM (inactive); with UO-31 it was 32.1 µM (inactive). The GI50 was 56.6 µM (inactive) in the assay on HCT-116, 93.8 µM (inactive) in the assay on NCI-H23, 3.75 µM (inactive) in the assay with LOX IMVI and 94 µM (inactive) in the assay on HOP-92.
On to `CN(C)c1ccc(/C=C/C(=O)N[C@@H]2C(=O)N3[C@@H]2SC(C)(C)[C@@H]3C(=O)O)cc1`, for which the GI50 in the assay on SK-MEL-28, in the assay on ACHN, with SK-MEL-5, in the assay on HCC 2998, in the assay on COLO 205 and in the assay on OVCAR-8 was > 100 µM (inactive) in each case. In addition, the GI50 in the assay on A498, with A549, in the assay with CAKI-1, with MDA-MB-231, in the assay on U-251 and with EKVX was > 100 µM (inactive) each time. The GI50 with NCI-H226 is > 100 µM (inactive); in the assay on SF-539 it was > 100 µM (inactive); in the assay with UO-31, > 100 µM (inactive); with HCT-116, 58.9 µM (inactive); in the assay with NCI-H23, > 100 µM (inactive); in the assay on LOX IMVI, > 100 µM (inactive).
As to `CCc1c(-c2ccccc2)[nH]c2ccccc2c1=O`, the GI50 is 67.9 µM (inactive) in the assay on SK-MEL-28; 36.7 µM (inactive) with ACHN; 27.4 µM (inactive) in the assay on SK-MEL-5; 80.9 µM (inactive) in the assay with HCC 2998; 33.4 µM (inactive) in the assay with A498; 13.4 µM (inactive) in the assay with A549. Moreover, the GI50 with CAKI-1 was 19.8 µM (inactive); in the assay with MDA-MB-231, 70.6 µM (inactive); with U-251, > 100 µM (inactive); with EKVX, 81.1 µM (inactive); with NCI-H226, 27.7 µM (inactive); in the assay on SF-539, 50.5 µM (inactive). Also, the GI50 is 0.0412 µM (active) in the assay on UO-31, 41.3 µM (inactive) in the assay with HCT-116, 55.3 µM (inactive) in the assay on NCI-H23 and 48.1 µM (inactive) in the assay on LOX IMVI.
For `OCc1cn(C(c2ccccc2)(c2ccccc2)c2ccccc2)cn1`, the GI50 is > 100 µM (inactive) in the assay on SK-MEL-28; 72.4 µM (inactive) in the assay on ACHN; > 100 µM (inactive) with SK-MEL-5; > 100 µM (inactive) in the assay with HCC 2998; > 100 µM (inactive) in the assay with COLO 205; > 100 µM (inactive) in the assay with OVCAR-8. For the same compound, the GI50 in the assay on A549 was > 100 µM (inactive); in the assay on CAKI-1 it was 91.6 µM (inactive); in the assay with MDA-MB-231 it was > 100 µM (inactive); with U-251, 50.9 µM (inactive); in the assay with IGROV-1 it was > 100 µM (inactive); in the assay with NCI-H226, > 100 µM (inactive). In addition, the GI50 was > 100 µM (inactive) with UO-31; > 100 µM (inactive) in the assay with HCT-116; > 100 µM (inactive) with NCI-H23; 66.7 µM (inactive) in the assay on LOX IMVI; 29.7 µM (inactive) in the assay with HOP-92.
Regarding `CCP(=O)(CC)C(Cl)(Cl)C(O)C(C)(C)C` (configuration not stated), the GI50 with SK-MEL-28, in the assay on ACHN, in the assay on SK-MEL-5, in the assay on HCC 2998, in the assay on COLO 205 and in the assay with OVCAR-8 was > 100 µM (inactive) each time. Further, the GI50 with A498, in the assay with A549, in the assay with CAKI-1, with MDA-MB-231, in the assay with U-251 and in the assay on IGROV-1 was > 100 µM (inactive) in each case. Also, the GI50 in the assay with NCI-H226, in the assay on UO-31, in the assay on HCT-116, in the assay on NCI-H23, in the assay with LOX IMVI and with HOP-92 was > 100 µM (inactive) each time.
For `Nc1ncc2c(n1)-c1ccccc1OC2N1CCCC1` (configuration not stated), the GI50 in the assay with SK-MEL-28, with ACHN, in the assay on SK-MEL-5, in the assay with COLO 205, in the assay on OVCAR-8 and in the assay on A549 was > 100 µM (inactive) throughout. For the same compound, the GI50 is > 100 µM (inactive) in the assay on CAKI-1; > 100 µM (inactive) in the assay on MDA-MB-231; > 100 µM (inactive) in the assay with U-251; 41.5 µM (inactive) in the assay with EKVX; 80.7 µM (inactive) in the assay on IGROV-1; > 100 µM (inactive) in the assay with NCI-H226. For the same compound, the GI50 in the assay on SF-539 is > 100 µM (inactive); in the assay on UO-31 it was 92 µM (inactive); in the assay with HCT-116, > 100 µM (inactive); with NCI-H23 it was > 100 µM (inactive); with LOX IMVI it was > 100 µM (inactive); in the assay on HOP-92, 83.9 µM (inactive).
For `C=CS(=O)(=O)CCN1CC1`, the GI50 in the assay with SK-MEL-28, with ACHN, in the assay on SK-MEL-5, with HCC 2998, with COLO 205 and in the assay on OVCAR-8 was > 10 µM (inactive) throughout. The GI50 in the assay with A549, in the assay with CAKI-1, in the assay with MDA-MB-231, in the assay on U-251, in the assay on IGROV-1 and with SF-539 was > 10 µM (inactive) throughout. Further, the GI50 in the assay with HCT-116, with NCI-H23, with LOX IMVI and in the assay on HOP-92 was > 10 µM (inactive) each time.
